# From ChEMBL document CHEMBL1201862, “PubChem BioAssay data set” (2004)
# Active and inactive are the calls of the source.
# Experiments:
# Interleukin-8 [1] = molecular target: T1, Interleukin-8 (Homo sapiens, UniProt P10145); test: Dose Response confirmation of uHTS small molecule hits for cystic fibrosis induced NFkb Inhibitors in a PAF-induced IL8 counterscreen.; format: functional; conditions: read-out: IC50_Mean
# T1 sequence (P10145 whole entry): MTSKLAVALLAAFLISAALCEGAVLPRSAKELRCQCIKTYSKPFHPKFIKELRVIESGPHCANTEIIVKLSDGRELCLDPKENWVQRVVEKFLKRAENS
# Interleukin-8 [2] = molecular target: T1, Interleukin-8; test: Dose Response confirmation of uHTS small molecule hits for cystic fibrosis induced NFkb Inhibitors in a TNFa-induced IL8 counterscreen.; format: functional; conditions: read-out: IC50_Mean
# [3] = inhibition of ARNT PAS-B/TACC3 complex formation – biochemical, AlphaScreen, cherry-picked samples, confirmation (AID 651703); format: functional, Homo sapiens;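 further: His-tagged ARNT PAS-B domain paired with GST-TACC3 E629A dimer coactivator fragment; potency of inhibitors that break up the complex and lower AlphaScreen signal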
# [4] = molecular target: Ras and Rab interactor 1/Tyrosine-protein kinase ABL1 (Homo sapiens, UniProt P00519+Q13671); format: functional;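 further: biochemical TR-FRET dose-response test measuring inhibition of binding between Rin1 and Abl proteins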
# [5] = molecular target: Nuclear receptor subfamily 5 group A member 2 (Homo sapiens, UniProt O00482); format: functional, cell-based;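 further: HEK293T cells transfected with LRH-1 and a StAR promoter luciferase reporter; potency for inhibitors that lower LRH-1 driven reporter light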
# Steroidogenic factor 1 = Steroidogenic factor 1 (Homo sapiens, UniProt Q13285); test: Counterscreen for inverse agonists of the liver receptor homolog-1 (LRH-1; NR5A2): Luminescence-based cell-based high throughput dose response assay to identify inverse agonists of the Steroidogenic Factor 1 Nuclear Receptor (SF1; NR5A1).; format: functional
# [6] = nonselective StAR promoter luciferase inhibitors – cell-based, luminescence, luciferase reporter, counter-screen for LRH-1 inverse agonist project, dose response (AID 651969); format: functional
# BJ [7] = test: cells; format: functional, cell-based; conditions: Homo sapiens
# BJ [8] = test: BJ-TERT fibroblast viability loss – cell-based, RAS-independent, luminescence, dose response (AID 1933); format: functional; conditions: Homo sapiens
# BJ [9] = test: BJ-TERT-LT-ST fibroblast viability loss – cell-based, RAS-independent, luminescence, dose response (AID 1935); format: functional; conditions: Homo sapiens;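 further: BJ fibroblasts immortalized with TERT plus LT and ST oncogenes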
# BJ [10] = test: growth inhibition of engineered Ras-driven BJ cells – cell-based, alamar blue fluorescence, cherrypicked samples, dose response (AID 2631); format: functional; conditions: Homo sapiens;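 further: confirmatory dose-response assay in RAS-dependent BJ fibroblasts engineered with TERT, LT and ST, with cytotoxicity read by fluorescence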
# [11] = molecular target: T2, Oxysterols receptor LXR-beta (Homo sapiens, UniProt P55055); format: functional, cell-based;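 further: Cell-based luminescence dose-response assay of agonist activity at LXR, run as a confirmatory counterscreen to a daf-12 agonist screen; HEK293 cells with Gal4-LXR fusion and GAL4-driven luciferase reporter; agonist potency from rising luciferase signal of a Gal4-LXR reporter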
# T2 sequence (P55055 whole entry): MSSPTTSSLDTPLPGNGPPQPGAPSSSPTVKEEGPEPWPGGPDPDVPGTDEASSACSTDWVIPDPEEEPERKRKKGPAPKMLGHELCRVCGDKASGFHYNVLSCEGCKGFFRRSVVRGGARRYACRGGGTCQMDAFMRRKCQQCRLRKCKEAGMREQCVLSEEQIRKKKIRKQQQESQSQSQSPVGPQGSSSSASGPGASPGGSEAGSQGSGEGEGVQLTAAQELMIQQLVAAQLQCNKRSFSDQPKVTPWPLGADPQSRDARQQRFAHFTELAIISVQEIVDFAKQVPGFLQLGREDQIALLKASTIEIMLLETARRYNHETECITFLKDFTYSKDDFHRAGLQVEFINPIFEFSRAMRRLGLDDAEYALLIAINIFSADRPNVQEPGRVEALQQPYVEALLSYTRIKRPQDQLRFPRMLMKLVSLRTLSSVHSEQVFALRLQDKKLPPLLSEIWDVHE
# [12] = DRD fibroblast viability loss – cell-based, non-viral oncogenic, luminescence, dose response (AID 1934); format: functional; conditions: Homo sapiens
# Streptokinase A = molecular target: T3, Streptokinase A (Streptococcus pyogenes serotype M1, UniProt P10520); test: viability-normalized secreted streptokinase activity reduction – plasminogen activation absorbance, OD405, dose response (AID 1914); format: functional, Streptococcus pyogenes M1 GAS;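 further: secreted streptokinase activity via plasminogen activation per viability signal from cell pellet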
# T3 sequence (P10520 whole entry): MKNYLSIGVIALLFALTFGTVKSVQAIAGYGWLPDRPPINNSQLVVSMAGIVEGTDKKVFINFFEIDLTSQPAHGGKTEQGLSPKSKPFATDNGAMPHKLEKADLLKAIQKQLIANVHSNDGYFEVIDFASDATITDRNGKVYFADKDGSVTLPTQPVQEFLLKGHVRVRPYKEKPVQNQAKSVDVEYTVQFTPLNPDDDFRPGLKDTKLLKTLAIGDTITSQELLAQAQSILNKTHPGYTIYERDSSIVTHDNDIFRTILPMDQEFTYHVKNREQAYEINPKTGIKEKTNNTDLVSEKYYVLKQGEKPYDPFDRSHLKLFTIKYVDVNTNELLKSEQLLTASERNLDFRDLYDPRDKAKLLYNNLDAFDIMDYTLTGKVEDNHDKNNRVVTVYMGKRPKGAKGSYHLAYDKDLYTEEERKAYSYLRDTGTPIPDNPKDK
# Streptococcus = test: GAS UMAA2166 growth inhibition – luminescence, BacTiterGlo, counter-screen for streptokinase expression inhibitor project, dose response (AID 1915); format: functional, organism-based;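 further: potency for reduction of bacterial viability or growth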
# [13] = test system: Streptococcus sp. 'group A'; test: Streptococcus pyogenes SK(-)GAS viability under kanamycin – luminescence, BacTiterGlo, confirmation, counter-screen for streptokinase expression inhibitor project, dose response (AID 1900); format: functional, organism-based
# Chain of Nuclear receptor subfamily 5 group A member 2 (O00482 whole entry): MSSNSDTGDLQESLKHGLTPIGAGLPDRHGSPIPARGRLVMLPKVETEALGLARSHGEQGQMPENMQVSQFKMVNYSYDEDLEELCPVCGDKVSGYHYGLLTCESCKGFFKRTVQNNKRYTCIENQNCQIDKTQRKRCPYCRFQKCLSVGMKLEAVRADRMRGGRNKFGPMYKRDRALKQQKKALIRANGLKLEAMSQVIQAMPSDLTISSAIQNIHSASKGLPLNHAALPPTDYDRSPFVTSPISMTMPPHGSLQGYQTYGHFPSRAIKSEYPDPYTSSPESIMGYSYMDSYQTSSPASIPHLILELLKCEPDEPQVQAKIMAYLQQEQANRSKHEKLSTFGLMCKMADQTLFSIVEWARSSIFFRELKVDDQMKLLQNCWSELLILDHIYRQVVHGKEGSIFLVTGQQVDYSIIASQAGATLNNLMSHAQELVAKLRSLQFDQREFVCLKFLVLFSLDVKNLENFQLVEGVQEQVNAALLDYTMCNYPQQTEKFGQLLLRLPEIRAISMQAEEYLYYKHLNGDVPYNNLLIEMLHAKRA
# Chain of Steroidogenic factor 1 (Q13285 whole entry): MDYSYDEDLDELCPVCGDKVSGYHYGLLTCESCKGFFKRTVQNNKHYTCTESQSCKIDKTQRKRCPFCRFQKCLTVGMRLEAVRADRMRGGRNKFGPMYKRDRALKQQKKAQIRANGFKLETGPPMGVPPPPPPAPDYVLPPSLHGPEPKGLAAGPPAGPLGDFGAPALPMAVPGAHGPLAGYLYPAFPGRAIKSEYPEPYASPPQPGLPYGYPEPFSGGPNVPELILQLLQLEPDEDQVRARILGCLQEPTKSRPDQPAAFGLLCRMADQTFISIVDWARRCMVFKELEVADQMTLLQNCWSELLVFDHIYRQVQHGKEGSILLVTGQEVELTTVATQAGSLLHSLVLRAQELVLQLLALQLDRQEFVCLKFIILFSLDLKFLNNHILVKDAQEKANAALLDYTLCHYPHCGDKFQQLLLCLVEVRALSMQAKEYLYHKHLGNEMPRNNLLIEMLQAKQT
# Chain of Ras and Rab interactor 1/Tyrosine-protein kinase ABL1 (P00519 whole entry): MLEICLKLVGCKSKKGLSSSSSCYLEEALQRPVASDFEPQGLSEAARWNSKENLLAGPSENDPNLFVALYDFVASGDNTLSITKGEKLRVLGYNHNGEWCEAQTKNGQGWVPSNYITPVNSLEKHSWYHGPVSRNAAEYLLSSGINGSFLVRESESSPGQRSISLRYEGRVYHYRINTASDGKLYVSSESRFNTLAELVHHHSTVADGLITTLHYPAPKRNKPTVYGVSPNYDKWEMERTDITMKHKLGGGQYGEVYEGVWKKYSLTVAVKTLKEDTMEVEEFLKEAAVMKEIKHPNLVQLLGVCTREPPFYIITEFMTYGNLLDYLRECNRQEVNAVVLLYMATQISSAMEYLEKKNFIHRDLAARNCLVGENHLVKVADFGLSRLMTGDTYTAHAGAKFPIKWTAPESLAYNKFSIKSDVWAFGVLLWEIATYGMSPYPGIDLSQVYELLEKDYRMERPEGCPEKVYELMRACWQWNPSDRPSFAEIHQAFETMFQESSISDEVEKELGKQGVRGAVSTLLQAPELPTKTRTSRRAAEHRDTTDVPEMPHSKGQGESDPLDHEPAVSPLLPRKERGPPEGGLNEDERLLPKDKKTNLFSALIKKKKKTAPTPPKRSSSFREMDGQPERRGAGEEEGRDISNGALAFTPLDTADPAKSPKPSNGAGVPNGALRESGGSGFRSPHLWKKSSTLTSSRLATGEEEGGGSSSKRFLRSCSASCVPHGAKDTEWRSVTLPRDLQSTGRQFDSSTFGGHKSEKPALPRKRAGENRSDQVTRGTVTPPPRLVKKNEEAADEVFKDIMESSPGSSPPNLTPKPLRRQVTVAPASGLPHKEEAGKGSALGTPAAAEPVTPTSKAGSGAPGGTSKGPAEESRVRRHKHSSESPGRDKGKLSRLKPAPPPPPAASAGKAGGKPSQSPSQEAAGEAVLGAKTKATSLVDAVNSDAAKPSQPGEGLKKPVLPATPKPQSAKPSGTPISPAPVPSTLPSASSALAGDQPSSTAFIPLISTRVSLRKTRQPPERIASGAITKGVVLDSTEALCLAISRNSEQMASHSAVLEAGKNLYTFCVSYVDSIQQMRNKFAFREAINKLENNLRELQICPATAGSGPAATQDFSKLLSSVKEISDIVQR
# Chain of Ras and Rab interactor 1/Tyrosine-protein kinase ABL1 (Q13671 whole entry): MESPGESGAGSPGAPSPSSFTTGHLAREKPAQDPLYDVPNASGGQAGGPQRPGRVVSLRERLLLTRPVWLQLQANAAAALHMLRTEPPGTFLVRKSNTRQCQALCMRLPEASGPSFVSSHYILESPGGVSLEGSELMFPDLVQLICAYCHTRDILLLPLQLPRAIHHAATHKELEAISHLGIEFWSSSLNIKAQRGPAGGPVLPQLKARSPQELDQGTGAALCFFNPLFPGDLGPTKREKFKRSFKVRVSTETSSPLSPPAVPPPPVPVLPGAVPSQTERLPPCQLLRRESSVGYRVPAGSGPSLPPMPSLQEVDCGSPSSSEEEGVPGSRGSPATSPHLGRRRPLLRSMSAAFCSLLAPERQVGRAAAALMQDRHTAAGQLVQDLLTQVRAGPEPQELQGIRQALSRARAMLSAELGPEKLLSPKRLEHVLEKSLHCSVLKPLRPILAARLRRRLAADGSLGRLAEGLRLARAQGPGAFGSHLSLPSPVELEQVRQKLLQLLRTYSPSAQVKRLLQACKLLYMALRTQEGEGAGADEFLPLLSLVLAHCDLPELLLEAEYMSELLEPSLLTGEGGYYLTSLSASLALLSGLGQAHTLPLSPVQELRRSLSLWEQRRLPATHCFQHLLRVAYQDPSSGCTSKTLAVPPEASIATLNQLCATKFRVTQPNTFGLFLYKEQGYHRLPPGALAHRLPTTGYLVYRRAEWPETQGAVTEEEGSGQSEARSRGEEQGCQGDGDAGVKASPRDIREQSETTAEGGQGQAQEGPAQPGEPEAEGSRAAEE
smiles,measurement,setting,value
CS(=O)(=O)c1ccc2nc(NC(=O)CCS(=O)(=O)c3ccccc3)sc2c1,IC50,Interleukin-8 [1],1.36 µM (active)
same,IC50,Interleukin-8 [2],1.5 µM (active)
CC1=CC(C)(C)N(C(=O)C(C)N2C(=O)c3ccccc3C2=O)c2ccc(C)cc21 (configuration not stated),AC50,[3],119 µM (active)
CN1CCN(C(=O)CSc2nc(-c3ccncc3)ccc2C#N)CC1,IC50,[4],39 µM (inactive)
NS(=O)(=O)c1ccc(CCNC(=O)COc2ccc3c4c(c(=O)oc3c2)CCC4)cc1,IC50,[5],35.9 µM (inactive)
same,IC50,Steroidogenic factor 1,35.9 µM (inactive)
same,IC50,[6],35.9 µM (inactive)
COc1cccc(NC(=O)n2ncc3c(C)cccc32)c1,EC50,BJ [7],8.05 µM (active)
same,EC50,cells,> 67.5 µM (inactive)
same,EC50,BJ [8],11.5 µM (active)
same,EC50,BJ [9],18.2 µM (active)
same,EC50,BJ [10],> 133 µM (inactive)
same,EC50,[11],> 67.5 µM (inactive)
same,EC50,[12],6.62 µM (active)
COc1ccc(-c2c[nH]nc2-c2ccc(OC)cc2)cc1,EC50,Streptokinase A,> 150 µM (not active)
same,IC50,Interleukin-8 [1],5.39 µM (active)
same,EC50,Streptococcus,8.74 µM (active)
same,IC50,Interleukin-8 [2],3.57 µM (active)
same,EC50,[13],3.33 µM (active)
CCC(C)(C)n1nnnc1CN1CCC(O)(c2cccc(C(F)(F)F)c2)CC1,IC50,[5],9.63 µM (active)
same,IC50,Steroidogenic factor 1,12.4 µM (inactive)
same,IC50,[6],35.9 µM (inactive)
